Laboratory results published in patent publication US20260325533A1, “CDK INHIBITOR COMPOUNDS” (ALEKSIA THERAPEUTICS, INC., priority 2023, published 2026).
Like-named read-outs stand apart in the source and are kept apart here.

How the values were obtained:
Format in all cases: biochemical
CDK4/CCND3 = CDK4/CCND3 (Homo sapiens, UniProt P11802); test: CDK4 homogeneous time-resolved fluorescence (HTRF) kinase assay; settings: CDK4/CCND
How it was run: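 IC50 values were derived from 11-point half-log dilutions, usually starting at 10 μM. Compound was first held for 20 min at 23 °C with 1.5 nM CDK4/CCND3. 1 mM ATP and 50 nM ULight-eIF4E-BP1 (Thr37/46) substrate were then added for 60 min, and the TR-FRET 665 nm signal was measured after EDTA stop and Eu-anti-phospho-4E-BP1 detection.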

CDK6/CCND1 = CDK6/CCND1 (Homo sapiens, UniProt Q00534); test: CDK6 homogeneous time-resolved fluorescence (HTRF) kinase assay; settings: CDK6/CCND
Chain of CDK6/CCND1 (Q00534 whole entry): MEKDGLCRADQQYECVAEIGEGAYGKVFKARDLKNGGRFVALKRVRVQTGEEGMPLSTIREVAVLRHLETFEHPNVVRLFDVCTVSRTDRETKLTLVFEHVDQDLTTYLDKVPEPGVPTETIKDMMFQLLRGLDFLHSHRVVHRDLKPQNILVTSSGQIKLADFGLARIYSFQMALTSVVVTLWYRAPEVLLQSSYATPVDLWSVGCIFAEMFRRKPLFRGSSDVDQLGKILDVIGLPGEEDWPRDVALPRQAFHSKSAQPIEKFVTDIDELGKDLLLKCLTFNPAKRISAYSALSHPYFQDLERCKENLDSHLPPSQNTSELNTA
Chain of CDK6/CCND1 (P24385 whole entry partner): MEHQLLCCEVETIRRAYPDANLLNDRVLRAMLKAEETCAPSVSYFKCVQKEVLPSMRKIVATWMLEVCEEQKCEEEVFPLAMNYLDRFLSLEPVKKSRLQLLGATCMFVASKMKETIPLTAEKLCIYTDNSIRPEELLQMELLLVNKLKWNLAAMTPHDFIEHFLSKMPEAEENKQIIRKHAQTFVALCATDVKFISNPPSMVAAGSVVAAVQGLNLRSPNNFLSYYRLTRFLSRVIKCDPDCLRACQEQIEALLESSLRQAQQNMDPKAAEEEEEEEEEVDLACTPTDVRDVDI
How it was run: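 Recombinant CDK6/CCND1 (1 nM final) was preincubated with compound for 20 min at 23 °C in HEPES buffer with MgCl2, EGTA, DTT and Tween 20. Kinase reaction then ran 60 min at 23 °C with 1 mM ATP and 50 nM ULight-4E-BP1 (Thr37/46) peptide, and was stopped with EDTA.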

CDK2/CCNE1 = CDK2/CCNE1 (Homo sapiens, UniProt P24941); test: CDK2 homogeneous time-resolved fluorescence (HTRF) kinase assay; settings: CDK2/CCNE
How it was run: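 TR-FRET read-out (665 nm, or 665/615 ratio) of Eu-antibody detection of phospho-4E-BP1 (Thr37/46) ULight peptide. Enzyme 3 nM, ATP 1 mM, peptide 50 nM, 1% DMSO; 60 min reaction at 23 °C after 20 min compound preincubation. IC50 from 11-point half-log titrations, top typically 10 μM.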

CDK1/CCNB1 = CDK1/CCNB1 (Homo sapiens, UniProt P06493); test: CDK1 homogeneous time-resolved fluorescence (HTRF) kinase assay; settings: CDK1/CCNB
Chain of CDK1/CCNB1 (P06493 whole entry): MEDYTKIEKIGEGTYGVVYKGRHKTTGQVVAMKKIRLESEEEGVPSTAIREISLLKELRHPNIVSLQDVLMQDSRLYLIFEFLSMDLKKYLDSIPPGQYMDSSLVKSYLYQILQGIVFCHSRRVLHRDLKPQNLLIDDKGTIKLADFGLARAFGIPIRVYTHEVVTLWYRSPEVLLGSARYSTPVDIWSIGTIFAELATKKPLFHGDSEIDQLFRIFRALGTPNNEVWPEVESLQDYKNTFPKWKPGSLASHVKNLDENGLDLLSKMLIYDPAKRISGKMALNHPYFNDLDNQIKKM
Chain of CDK1/CCNB1 (P14635 whole entry partner): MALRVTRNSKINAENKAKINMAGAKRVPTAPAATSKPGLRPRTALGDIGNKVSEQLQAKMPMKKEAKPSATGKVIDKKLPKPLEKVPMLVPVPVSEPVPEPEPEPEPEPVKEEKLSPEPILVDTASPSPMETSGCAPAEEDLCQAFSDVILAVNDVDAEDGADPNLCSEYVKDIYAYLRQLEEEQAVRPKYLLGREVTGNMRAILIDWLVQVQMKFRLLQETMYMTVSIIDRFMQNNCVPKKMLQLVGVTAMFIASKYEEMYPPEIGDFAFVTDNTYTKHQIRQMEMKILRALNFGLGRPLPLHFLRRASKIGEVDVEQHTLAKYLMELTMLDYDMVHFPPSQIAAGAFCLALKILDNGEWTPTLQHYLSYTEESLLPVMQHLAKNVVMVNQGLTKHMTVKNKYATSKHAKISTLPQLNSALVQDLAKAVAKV
How it was run: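 HTRF assay with 0.5 nM CDK1/CCNB1, 1 mM ATP, 50 nM ULight-eIF4E-BP1 (Thr37/46) peptide; compound preincubated 20 min, reaction 60 min at 23 °C, EDTA stop, Eu-anti-phospho antibody detection. 11-point half-log titration from 10 μM, 1% DMSO; IC50 from 665 nm or 665/615 signal.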

[1] = >250 nM, read-out: CDK4/CCND IC50, >250 nM
[2] = >250 nM, 1 mM ATP, read-out: CDK6/CCND IC50, >250 nM
[3] = 25-250 nM, read-out: CDK2/CCNE IC50, 25-250 nM
[4] = >250 nM, read-out: CDK1/CCNB IC50 >250 nM
[5] = x = IC50 >250 nM, read-out: CDK4/CCND IC50 (>250 nM column)
[6] = x = IC50 >250 nM, read-out: CDK6/CCND IC50 (>250 nM column)
[7] = x = IC50 <25 nM, read-out: CDK2/CCNE IC50 (<25 nM)
[8] = x = IC50 >250 nM, read-out: CDK1/CCNB IC50 (>250 nM column)
[9] = x = IC50 25-250 nM, read-out: CDK4/CCND IC50 (25-250 nM)
[10] = >250 nM marked x, read-out: CDK4/CCND IC50 >250 nM
[11] = >250 nM marked x, read-out: CDK6/CCND IC50 >250 nM
[12] = <25 nM, read-out: CDK2/CCNE IC50 <25 nM
[13] = >250 nM marked x, read-out: CDK1/CCNB IC50 >250 nM

Chain of CDK4/CCND3 (P11802 whole entry): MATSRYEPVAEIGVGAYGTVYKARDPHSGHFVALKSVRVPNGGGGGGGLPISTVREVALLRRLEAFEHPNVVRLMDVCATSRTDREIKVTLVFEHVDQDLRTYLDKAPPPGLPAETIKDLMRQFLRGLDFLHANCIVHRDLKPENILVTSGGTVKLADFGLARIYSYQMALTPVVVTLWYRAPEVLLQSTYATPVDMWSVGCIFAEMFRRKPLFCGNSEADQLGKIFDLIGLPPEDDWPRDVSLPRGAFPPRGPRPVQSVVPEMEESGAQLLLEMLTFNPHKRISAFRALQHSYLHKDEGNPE
Chain of CDK4/CCND3 (P30281 whole entry partner): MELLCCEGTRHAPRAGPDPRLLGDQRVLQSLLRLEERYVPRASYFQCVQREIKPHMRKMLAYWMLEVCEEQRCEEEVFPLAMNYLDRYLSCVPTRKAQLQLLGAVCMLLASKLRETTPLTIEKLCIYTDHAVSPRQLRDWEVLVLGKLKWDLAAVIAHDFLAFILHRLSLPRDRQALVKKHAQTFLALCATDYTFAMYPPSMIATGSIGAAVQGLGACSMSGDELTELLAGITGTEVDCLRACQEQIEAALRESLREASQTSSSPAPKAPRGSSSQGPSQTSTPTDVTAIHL

SMILES: Cc1c(-c2ncc(F)c3cnc(Nc4ccc(S(C)(=O)=O)cc4)cc23)ccc2c1cnn2CC(O)(C(F)(F)F)C(F)(F)F [Ex 757, 1,1,1,3,3,3-hexafluoro-2-((5-(4-fluoro-7-((4-(methylsulfonyl)phenyl)amino)-2,6-naphthyridin-1-yl)-4-methyl-1H-indazol-1-yl)methyl)propan-2-ol]
- IC50 (CDK4/CCND3; [1]): > 250 nM
- IC50 (CDK6/CCND1; [2]): > 250 nM
- IC50 (CDK2/CCNE1; [3]): 25 to 250 nM
- IC50 (CDK1/CCNB1; [4]): > 250 nM

SMILES: Nc1ncccc1C#Cc1nccc2cnc(Nc3ccc(S(N)(=O)=O)cc3F)cc12 [Ex 466, 4-((5-((2-aminopyridin-3-yl)ethynyl)-2,6-naphthyridin-3-yl)amino)-3-fluorobenzenesulfonamide]
- IC50 (CDK4/CCND3; [5]): > 250 nM
- IC50 (CDK6/CCND1; [6]): > 250 nM
- IC50 (CDK2/CCNE1; [7]): < 25 nM
- IC50 (CDK1/CCNB1; [8]): > 250 nM

SMILES: COc1ccc(C#Cc2nccc3cnc(Nc4ccc(S(C)(=O)=O)cc4)cc23)nn1 [Ex 514, 5-((6-methoxypyridazin-3-yl)ethynyl)-N-(4-(methylsulfonyl)phenyl)-2,6-naphthyridin-3-amine]
- IC50 (CDK4/CCND3; [5]): > 250 nM
- IC50 (CDK6/CCND1; [6]): > 250 nM
- IC50 (CDK2/CCNE1; x = IC50 >250 nM, read-out: CDK2/CCNE IC50 (>250 nM column)): > 250 nM
- IC50 (CDK1/CCNB1; [8]): > 250 nM

SMILES: CCC1(CC)C(=O)Nc2cc(C#Cc3nccc4cnc(Nc5ccc(S(=N)(=O)C6CCC6)cc5)cc34)ccc21 (single isomer, unassigned) [Ex 412, 6-((7-((4-(cyclobutanesulfonimidoyl)phenyl)amino)-2,6-naphthyridin-1-yl)ethynyl)-3,3-diethylindolin-2-one]
- IC50 (CDK4/CCND3; [9]): 25 to 250 nM
- IC50 (CDK6/CCND1; [6]): > 250 nM
- IC50 (CDK2/CCNE1; [7]): < 25 nM
- IC50 (CDK1/CCNB1; [8]): > 250 nM

SMILES: CCC1(CC)C(=O)Nc2cc(C#Cc3nccc4cnc(Nc5ccc(S(=N)(=O)C6COC6)cc5F)cc34)ccc21 (single isomer, unassigned) [Ex 273, 3,3-diethyl-6-((7-((2-fluoro-4-(oxetane-3-sulfonimidoyl)phenyl)amino)-2,6-naphthyridin-1-yl)ethynyl)indolin-2-one]
- IC50 (CDK4/CCND3; [10]): > 250 nM
- IC50 (CDK6/CCND1; [11]): > 250 nM
- IC50 (CDK2/CCNE1; [12]): < 25 nM
- IC50 (CDK1/CCNB1; [13]): > 250 nM

SMILES: CS(=O)(=O)c1ccc(Nc2cc3c(C#Cc4cnc(N)nc4)nccc3cn2)cc1 [Ex 633, 5-((2-aminopyrimidin-5-yl)ethynyl)-N-(4-(methylsulfonyl)phenyl)-2,6-naphthyridin-3-amine]
- IC50 (CDK4/CCND3; [5]): > 250 nM
- IC50 (CDK6/CCND1; [6]): > 250 nM
- IC50 (CDK2/CCNE1; x = IC50 25-250 nM, read-out: CDK2/CCNE IC50 (25-250 nM)): 25 to 250 nM
- IC50 (CDK1/CCNB1; [8]): > 250 nM

SMILES: CC1(CO)C(=O)Nc2cc(C#Cc3nccc4cnc(Nc5ccc(S(C)(=O)=O)cc5)cc34)ccc21 (racemic) [Example 391, 3-(hydroxymethyl)-3-methyl-6-((7-((4-(methylsulfonyl)phenyl)amino)-2,6-naphthyridin-1-yl)ethynyl)indolin-2-one]
- IC50 (CDK4/CCND3; [9]): 25 to 250 nM
- IC50 (CDK6/CCND1; [6]): > 250 nM
- IC50 (CDK2/CCNE1; [7]): < 25 nM
- IC50 (CDK1/CCNB1; x = IC50 25-250 nM, read-out: CDK1/CCNB IC50 (25-250 nM)): 25 to 250 nM

SMILES: Cc1c(-c2nccc3cnc(Nc4cccc5ccccc45)cc23)ccc2c1cnn2CC(C)(C)O [Ex 916, 2-methyl-1-(4-methyl-5-(7-(naphthalen-1-ylamino)-2,6-naphthyridin-1-yl)-1H-indazol-1-yl)propan-2-ol]
- IC50 (CDK4/CCND3; [1]): > 250 nM
- IC50 (CDK6/CCND1; [2]): > 250 nM
- IC50 (CDK2/CCNE1; [3]): 25 to 250 nM
- IC50 (CDK1/CCNB1; [4]): > 250 nM

SMILES: C=CS(=O)(=O)c1ccc(Nc2cc3c(-c4cccc(COC)c4)nccc3cn2)cc1 [Ex 137, 5-(3-(methoxymethyl)phenyl)-N-(4-(vinylsulfonyl)phenyl)-2,6-naphthyridin-3-amine]
- IC50 (CDK4/CCND3; [10]): > 250 nM
- IC50 (CDK6/CCND1; [11]): > 250 nM
- IC50 (CDK2/CCNE1; 25-250 nM marked x, read-out: CDK2/CCNE IC50 25-250 nM): 25 to 250 nM
- IC50 (CDK1/CCNB1; [13]): > 250 nM

SMILES: N=S(=O)(c1ccc(Nc2cc3c(C#Cc4ccc5c(c4)NC(=O)C54CC4)nccc3cn2)cc1)C1CC1 (single isomer, unassigned) [Ex 306, 6'-((7-((4-(cyclopropanesulfonimidoyl)phenyl)amino)-2,6-naphthyridin-1-yl)ethynyl)spiro[cyclopropane-1,3'-indolin]-2'-one]
- IC50 (CDK4/CCND3; 25-250 nM marked x, read-out: CDK4/CCND IC50 25-250 nM): 25 to 250 nM
- IC50 (CDK6/CCND1; 25-250 nM marked x, read-out: CDK6/CCND IC50 25-250 nM): 25 to 250 nM
- IC50 (CDK2/CCNE1; [12]): < 25 nM
- IC50 (CDK1/CCNB1; 25-250 nM marked x, read-out: CDK1/CCNB IC50 25-250 nM): 25 to 250 nM
